The nature of one series: Relaxivity determination (r1p) of Gd complexes at 298 K, 20 MHz, pH 7. The format is physicochemical. As to conditions: Table 5; 298 K, 20 MHz, pH 7; q=1 derivatives of the DTPA-monophosphonate backbone. From the text: As far as the relaxation enhancement property is concerned, a paramagnetic Gd(III) complex is characterized by its relaxivity (r1p) which represents the increase of the proton relaxation rate of an aqueous solution of the Gd(III) complex in comparison to the proton relaxation rate of neat water (R1^o). The relaxivity is usually measured at 298 K and 20 MHz (0.5 T).
In order to best evaluate the relaxivity properties and the parameters affecting the relaxivity of the agents of the invention, some comparative tests have been performed. In a first experiment, the relaxivity of a number of Gd-based chelated compounds having different molecular weight, all derived from the following [Gd(DTPA-monophosphonate)]^3− basic backbone structure (r1p at 20 MHz and 298K: 6.1 mM^−1s^−1) of formula
Tested compounds include the Gd-complex of the chelating compounds 1b and 2b of the invention (hereinafter Gd-1b and Gd-2b) as well as a number of different derivatives of the aforementioned backbone moiety selected in order to cover a range of molecular weights of up to about 1800 Dalton. The relaxivity of all of the tested compounds were measured at 298 K and 20 MHz and pH 7. The obtained values, listed in table 5 below (together with the structure of the compounds) have also been plotted against the MW of the complexes (see FIG. 1).
A second experiment was performed to test the relaxivity of different compounds of the invention, marketed NSA, known LDA and other systems, all containing one coordinated water molecule (q=1). The data were registered at 298K and 20 MHz and pH=7, and plotted against their corresponding MW. Relaxivity data relating to LDA P760 and P792 (LDA contrast agents) are based on literature cited below.
In addition to the above, please find below as per table 7, other relaxivity values, measured as above indicated, for some other representative compounds of the invention.
Regarding `O=C(O)CN(CCN(CCN(CC(=O)O)[C@@H](Cc1ccccc1)C(=O)O)CP(=O)(O)O)[C@@H](Cc1ccccc1)C(=O)O` [B 22606], the “R1p” value was determined as 7.7 mM⁻¹ s⁻¹.

As for `O=C(O)CN(CCN(CCN(CC(=O)O)[C@@H](Cc1c[nH]c2ccccc12)C(=O)O)CP(=O)(O)O)C(Cc1c[nH]c2ccccc12)C(=O)O` (stereo partly drawn) [B 22836], the “R1p” value is 7.9 mM⁻¹ s⁻¹.

For `O=C(O)CN(CCN(CCN(CC(=O)O)[C@@H](COCc1ccccc1)C(=O)O)CP(=O)(O)O)[C@@H](COCc1ccccc1)C(=O)O` [B 22666], the “R1p” value worked out at 7.9 mM⁻¹ s⁻¹.

The series is the same for the next values; noted with them: Table 6; 298K, 20 MHz, pH=7; q=1.
As for `O=C(O)CN1CCN(C(COCc2ccccc2)C(=O)O)CCN(CC(=O)O)CCN(C(COCc2ccccc2)C(=O)O)CC1` (stereo not drawn) [Compound B19236], the “R1p” value was found to be 6.5 mM⁻¹ s⁻¹.

With `O=C(CCC(C(=O)O)N1CCN(C(CCC(=O)NCC(COC(CO)CO)COC(CO)CO)C(=O)O)CCN(C(CCC(=O)NCC(COC(CO)CO)COC(CO)CO)C(=O)O)CCN(C(CCC(=O)NCC(COC(CO)CO)COC(CO)CO)C(=O)O)CC1)NCC(COC(CO)CO)COC(CO)CO` (stereo not drawn) [Gd-1c], the “R1p” value amounted to 13.84 mM⁻¹ s⁻¹.

`O=C(O)CN1CCN(CC(=O)O)CCN(CC(=O)O)CCN(CC(=O)O)CC1` [Gd-DOTA]: the “R1p” value was 4.7 mM⁻¹ s⁻¹.

For `O=C(O)CN1CCN(CC(=O)O)CCN(C(COCc2ccccc2)C(=O)O)CCN(CC(=O)O)CC1` (stereo not drawn) [Compound B19106], the “R1p” value worked out at 5.5 mM⁻¹ s⁻¹.

In the case of `CC(CO)(CO)COCC(CNC(=O)CCC(C(=O)O)N1CCN(C(CCC(=O)NCC(COCC(C)(CO)CO)COCC(C)(CO)CO)C(=O)O)CCN(C(CCC(=O)NCC(COCC(C)(CO)CO)COCC(C)(CO)CO)C(=O)O)CCN(C(CCC(=O)NCC(COCC(C)(CO)CO)COCC(C)(CO)CO)C(=O)O)CC1)COCC(C)(CO)CO` (stereo not drawn) [Gd-2c], the “R1p” value amounted to 15 mM⁻¹ s⁻¹.

For `O=C(CCC(C(=O)O)N1CCN(C(CCC(=O)NCC(COCC(COC(CO)CO)COC(CO)CO)COCC(COC(CO)CO)COC(CO)CO)C(=O)O)CCN(C(CCC(=O)NCC(COCC(COC(CO)CO)COC(CO)CO)COCC(COC(CO)CO)COC(CO)CO)C(=O)O)CCN(C(CCC(=O)NCC(COCC(COC(CO)CO)COC(CO)CO)COCC(COC(CO)CO)COC(CO)CO)C(=O)O)CC1)NCC(COCC(COC(CO)CO)COC(CO)CO)COCC(COC(CO)CO)COC(CO)CO` (stereo not drawn) [Gd-3c], the “R1p” value stood at 19.6 mM⁻¹ s⁻¹.

On to `O=C(O)CN1CCN(C(COCc2ccccc2)C(=O)O)CCN(C(COCc2ccccc2)C(=O)O)CCN(C(COCc2ccccc2)C(=O)O)CC1` (stereo not drawn) [Compound B19406], for which the “R1p” value was 7.5 mM⁻¹ s⁻¹.

Regarding `O=C(O)CN(CCN(CC(=O)O)CC(=O)O)CCN(CC(=O)O)CC(=O)O` [Gd-DTPA], the “R1p” value is 4.7 mM⁻¹ s⁻¹.

The series is the same for the next values; noted with them: Table 7; measured as above indicated (298 K, 20 MHz).
Regarding `O=C(CC[C@@H](C(=O)O)N1CCN([C@@H](CCC(=O)NC(COC2OC(CO)C(O)C(O)C2O)(COC2OC(CO)C(O)C(O)C2O)COC2OC(CO)C(O)C(O)C2O)C(=O)O)CCN([C@@H](CCC(=O)NC(COC2OC(CO)C(O)C(O)C2O)(COC2OC(CO)C(O)C(O)C2O)COC2OC(CO)C(O)C(O)C2O)C(=O)O)CCN([C@@H](CCC(=O)NC(COC2OC(CO)C(O)C(O)C2O)(COC2OC(CO)C(O)C(O)C2O)COC2OC(CO)C(O)C(O)C2O)C(=O)O)CC1)NC(COC1OC(CO)C(O)C(O)C1O)(COC1OC(CO)C(O)C(O)C1O)COC1OC(CO)C(O)C(O)C1O` (stereo partly drawn) [Gd-7c], the “R1p” value amounted to 20.4 mM⁻¹ s⁻¹.

Turning to `O=C(O)CCC(C(=O)O)N1CCN(Cc2cccc(C(=O)NCC(CNC(=O)C(O)C(O)C(O)C(O)CO)(CNC(=O)C(O)C(O)C(O)C(O)CO)CNC(=O)C(O)C(O)C(O)C(O)CO)c2)CCN(C(CCC(=O)O)C(=O)O)CCN(C(CCC(=O)O)C(=O)O)CC1` (stereo not drawn) [Gd-1d], the “R1p” value worked out at 24 mM⁻¹ s⁻¹.

On to `CC1(N(CC(=O)O)CC(=O)O)CN(C(CCC(=O)N(CCN(CCC(=O)NC(CO)(CO)CO)CCC(=O)NC(CO)(CO)CO)CCN(CCC(=O)NC(CO)(CO)CO)CCC(=O)NC(CO)(CO)CO)C(=O)O)CCN(C(CCC(=O)N(CCN(CCC(=O)NC(CO)(CO)CO)CCC(=O)NC(CO)(CO)CO)CCN(CCC(=O)NC(CO)(CO)CO)CCC(=O)NC(CO)(CO)CO)C(=O)O)C1` (stereo not drawn) [Gd-15a], for which the “R1p” value is 16.7 mM⁻¹ s⁻¹.

The nature of the next series: 1/T1 NMRD profiles / relaxivity over a range of magnetic field strengths. The format is physicochemical. As to conditions: 25° C., 1 mM aqueous solution; from 0.2 to 3 MHz. From the text:
As an example, the relaxivity profile of the gadolinium complex of the chelating ligand of the invention 2b (hereinafter referred to as Gd-2b), in the above magnetic field range, has been compared with that of a marketed NSA, i.e. Magnevist®, and that of a blood pool agent, i.e. the macromolecular adduct between Gd-DTPA(BOM)3 and BSA (Bovine Serum Albumin) (FIG. 6).
The corresponding profile for the above blood pool agent is quite different.
The stability of the relaxivity properties shown by the compounds of the invention was tested. In a first experiment, the 1/T1 NMRD profiles for some compounds of the invention were acquired over a range of magnetic field strengths ranging from 0.01 to 130 MHz. The profile shown by the Gd-1b chelated compound of the invention is included in FIG. 4, while corresponding profiles for chelated compounds Gd-1c, Gd-2c and Gd-3c are included in FIGS. 5 and 5 bis. A comparison has been also performed for compound Gd-2b over a corresponding profile registered for GD-DTPA (Magnevist®), a marketed NSA, and for GD-DOTA-BSA, a well known blood pool agent.
Conversely, the relaxivity improvement shown by the blood pool agent rapidly falls dawn over the same range of magnetic field strength.
For the compound Gd-DTPA, the “relaxivity profile over magnetic field strength (NMRD)” value is “quite stable though very low”.

The record behind these values is US7988950B2, “Contrast agents endowed with high relaxivity for use in magnetic resonance imaging (MRI) which contain a chelating moiety with polyhydroxylated substituents” (Bracco Imaging S.p.A., priority 2004, dated 2011).
